# Data from patent publication US12522614B2, “Topical phosphoinositide 3-kinase inhibitors” (VENTHERA, INC., priority 2019, dated 2026).
# How the values were obtained:
# [1] = Saturation concentration in formulation or receiver medium; assay type: physicochemical; details: gel formulation with excipients of Example 8 (Table 2)
# Protocol: The liquid excipients, i.e. DMSO, oleic acid, Transcutol® P, and dipropylene glycol were mixed in a 20-mL vial, by vortex agitation. The active ingredient, a compound of formula (I), for example Compound 1.002 was then added, and the vial content was sonicated for 10 minutes to dissolve the compound. […] Hydroxylpropyl cellulose (HPC) was added, and the vial was agitated by vortex for another ten minutes to obtain the gel formulation. The viscosity of the clear gel was measured to be in a range of about 7,000 to 10,000 centipoise (cp).
# (§1) Skin flux studies were run for a period of 48 hours. At predetermined intervals (2, 4, 8, 24 and 48 hours) after starting the experiment, the entire contents of the receiver compartment were collected for determining concentrations of the drug by HPLC. The receiver compartment was refilled with fresh receiver medium. The receiver medium was pH 7.4 phosphate buffer with 0.5 mg/ml of Oleath 20 with the saturation concentration of the drug in the receptor medium being 0.152 mg/ml. This solubility of the drug in the receiver medium was enough to ensure sink conditions throughout each collection interval.
# [2] = In vitro human skin permeation study of topical gel formulations (Franz diffusion cells); assay type: in vitro ADME; details: human skin; for Cumulative permeation, Compound 1.012 / Hydrolysis of Cmpd. 1.012 to MTPP: Study-6, gel saturated at 58 mg/mL; for Cumulative permeation (intact compound): Study-4, saturated gel
# [3] = as above; assay type: in vitro ADME; details: saturated gel formulations, skin flux experiments
# Source text: The gel formulation of Example 8 was used as the donor phase to determine the permeation of Compound 1.002 through human skin and its effectiveness as a topical application. Three skin donors and three diffusion cells (for each donor) per formulation were used in the in vitro skin permeation experiments. Split thickness dermatomed (approximately at […] thickness) human cadaver skin, supplied by New York Firefighters Skin Bank, NY, was used to determine the permeation rate of the tested compound (i.e., the drug) in vitro. All in vitro skin permeation studies were conducted using the Vertical Diffusion Cells assembly with consoles (Model FDC-6), and heating controllers (Logan Instruments Inc. Somerset, NJ). Each assembly consisted of six vertical, jacketed (37° C.±0.5° C.) 12-mL Franz diffusion cells with magnetic stirrer and 1.767 cm^2 diffusion area.
# as §1
# Samples of the receptor phase were obtained at 2, 4, 8, 12, 24 and 48 h and concentrations of Compound 1.002 and 3-(4-morpholinothieno(3,2-d)pyrimidin-2-yl)phenol (metabolite of Compound 1.002, abbreviated as MTPP) were determined using a validated HPLC method. The metabolism of Compound 1.002 to MTPP takes place in the human skin by esterase enzymes.
# HPLC method: Column—Gemini C-18 4.6×150 mm, 5 μm particle size; Mobile Phase—water:acetonitrile 25:75 containing 0.1% TFA; Flow Rate—1 mL/min; Detection—274 nm; Column Temperature—40° C.; and Run Time—10 min. The retention times for MTPP and Compound 1.002 were 3.9 and 7.2 minutes, respectively.
# The skin flux of drugs and cumulative amount of drugs permeated (sum of MTPP and Compound 1.002) for a period of 48 hours were calculated and are shown in Table 3. FIG. 3 represents a plot of Cumulative amount permeated versus time.
# [4] = Accelerated stability study of topical gel formulations at 80° C.; assay type: physicochemical; details: gel formulation (Table 2 excipients), 80° C.
# Protocol: Topical gel formulations were prepared using excipients as shown in Table 2 according to Example 8, in which Compounds 1.002, 1.012, and 1.006 were used as the active ingredient, respectively. These gel formulations were subjected to stability study at 80° C. for 10 days. Stability under the condition of at 80° C. for 10 days is expected to be approximately equivalent to the stability for three (3) years at room temperature. A relative purity of the tested compound after being exposed for 5 days and 10 days at 80° C. was determined by HPLC, as compared to its initial purity (at day 0).
# The values shown in the table are percent hydrolysis of the respective compounds to the parent compound MTPP.
# Topical gel formulations of Compound 1.002 were prepared using excipients as shown in Table 2 according to Example 8, in which the content of oleic acid varied at 1%, 2%, 5%, and 10%, respectively. These gel formulations were subjected to stability study at 80° C. for 10 days, which is expected to be approximately equivalent to the stability for three (3) years at room temperature. A purity of the tested compound on day 0, 5, 7, and 10 at 80° C. was determined by HPLC. The detected impurity of the tested compound appears to be the hydrolysis product, as MTPP. Table 17 represents stability data of Compound 1.002 in topical formulations having oleic acid at various contents.
# Gel formulations of Example 17 were subjected to stability study at 80° C. for 10 days. Stability under the condition of at 80° C. for 10 days is expected to be approximately equivalent to the stability for three (3) years at room temperature. A relative purity of Compound 1.002 after being exposed for 5 days and 10 days at 80° C. was determined by HPLC, as compared to its initial purity (at day 0).
# [5] = system: cancer cell; details: U.S. Pat. No. 6,838,457; cited from earlier work
# [6] = system: PI3K; details: U.S. Pat. No. 6,838,457; cited from earlier work
# [7] = target: T1, PI3K (p110a(E545K)/p85a) (Homo sapiens, UniProt P42336, E545K); test: Lipid kinase inhibitory activity, ADP-Glo; assay type: biochemical; details: α E545K
# T1 construct: purchased Reaction Biology Corporation (RBC)
# Protocol: (§2) Lipid kinases: Lipid kinases from Reaction Biology Corporation (RBC) in ADP-Glo format were used.
# (§3) Assay Description: The kinase reactions utilized ATP and produced ADP as a byproduct. The ADP production was quantified by ADP-Glo luminescence detection. This assay was a 3-step reaction. First, the kinase reaction with lipid substrate was carried out in the presence of ATP, and the reaction was quenched and depleted remaining ATP with ADP-Glo™ reagent, and then finally ADP was converted to ATP which was measured using a luciferase/luciferin reaction.
# (§4) Assay Procedure: The assay was performed according to the steps as follows: • 1. Preparing substrate in freshly prepared reaction buffer; • 2. Delivering kinase into the substrate solution and gently mixing; • 3. Delivering compounds in […] into the kinase reaction mixture by Acoustic technology (Echo550; nanoliter range), incubating for 20 minutes at room temperature; • 4. Delivering ATP into the reaction mixture to initiate the reaction; • 5. Incubating for 30 minutes at 30° C.; • 6. Quenching the reaction with ADP-Glo reagent and incubating for 40 minutes; • 7. Adding Detection Mixture and incubating for 30 minutes; and • 8. Measuring luminescence.
# (§5) Data Analysis: The luminescence was converted into μM ADP production based on ADP standard curves. The nonlinear regression to obtain the standard curve and IC50 values were performed using Graphpad Prism software.
# [8] = target: T2, PI3Ka (p110a/p85a) (Homo sapiens, UniProt P42336); test: Lipid kinase inhibitory activity, ADP-Glo; assay type: biochemical; details: α
# T2 construct: purchased Reaction Biology Corporation (RBC)
# Protocol: as §2, §3, §4, §5
# [9] = target: T3, PI3K (p110a(E542K)/p85a) (Homo sapiens, UniProt P42336, E542K); test: Lipid kinase inhibitory activity, ADP-Glo; assay type: biochemical; details: α E542K
# T3 construct: purchased Reaction Biology Corporation (RBC)
# Protocol: as §2, §3, §4, §5
# [10] = target: T4, PI3Kg (p110g) (Homo sapiens, UniProt P48736); test: Lipid kinase inhibitory activity, ADP-Glo; assay type: biochemical; details: γ
# T4 construct: purchased Reaction Biology Corporation (RBC)
# Protocol: as §2, §3, §4, §5
# [11] = target: T5, PI3Kb (p110b/p85a) (Homo sapiens, UniProt P42338); test: Lipid kinase inhibitory activity, ADP-Glo; assay type: biochemical; details: β
# T5 construct: purchased Reaction Biology Corporation (RBC)
# Protocol: as §2, §3, §4, §5
# [12] = target: T6, PI3Kd (p110d/p85a) (Homo sapiens, UniProt O00329); test: Lipid kinase inhibitory activity, ADP-Glo; assay type: biochemical; details: δ
# T6 construct: purchased Reaction Biology Corporation (RBC)
# Protocol: as §2, §3, §4, §5
# [13] = target: T7, MTOR/FRAP1 (Homo sapiens, UniProt P42345); test: Lipid kinase inhibitory activity, ADP-Glo; assay type: biochemical
# T7 construct: purchased Reaction Biology Corporation (RBC)
# Protocol: as §2, §3, §4, §5
# [14] = target: T8, PI3K (p110a(H1047R)/p85a) (Homo sapiens, UniProt P42336, H1047R); test: Lipid kinase inhibitory activity, ADP-Glo; assay type: biochemical; details: α H1047R
# T8 construct: purchased Reaction Biology Corporation (RBC)
# Protocol: as §2, §3, §4, §5
# [15] = Study-5, Table 6A experiment, saturated gel, 2 h
# [16] = Study-5, Table 6A experiment, saturated gel, 4 h
# [17] = Study-5, Table 6A experiment, saturated gel, 8 h
# [18] = Study-5, Table 6A experiment, saturated gel, 24 h
# [19] = Study-5, Table 6A experiment, saturated gel, 48 h
# [20] = Study-5, Table 6B experiment, gel saturated at 215 mg/mL, 2 h
# [21] = Study-5, Table 6B experiment, gel saturated at 215 mg/mL, 4 h
# [22] = Study-5, Table 6B experiment, gel saturated at 215 mg/mL, 8 h
# [23] = Study-5, Table 6B experiment, gel saturated at 215 mg/mL, 24 h
# [24] = Study-5, Table 6B experiment, gel saturated at 215 mg/mL, 48 h
# T6 sequence (O00329 whole entry): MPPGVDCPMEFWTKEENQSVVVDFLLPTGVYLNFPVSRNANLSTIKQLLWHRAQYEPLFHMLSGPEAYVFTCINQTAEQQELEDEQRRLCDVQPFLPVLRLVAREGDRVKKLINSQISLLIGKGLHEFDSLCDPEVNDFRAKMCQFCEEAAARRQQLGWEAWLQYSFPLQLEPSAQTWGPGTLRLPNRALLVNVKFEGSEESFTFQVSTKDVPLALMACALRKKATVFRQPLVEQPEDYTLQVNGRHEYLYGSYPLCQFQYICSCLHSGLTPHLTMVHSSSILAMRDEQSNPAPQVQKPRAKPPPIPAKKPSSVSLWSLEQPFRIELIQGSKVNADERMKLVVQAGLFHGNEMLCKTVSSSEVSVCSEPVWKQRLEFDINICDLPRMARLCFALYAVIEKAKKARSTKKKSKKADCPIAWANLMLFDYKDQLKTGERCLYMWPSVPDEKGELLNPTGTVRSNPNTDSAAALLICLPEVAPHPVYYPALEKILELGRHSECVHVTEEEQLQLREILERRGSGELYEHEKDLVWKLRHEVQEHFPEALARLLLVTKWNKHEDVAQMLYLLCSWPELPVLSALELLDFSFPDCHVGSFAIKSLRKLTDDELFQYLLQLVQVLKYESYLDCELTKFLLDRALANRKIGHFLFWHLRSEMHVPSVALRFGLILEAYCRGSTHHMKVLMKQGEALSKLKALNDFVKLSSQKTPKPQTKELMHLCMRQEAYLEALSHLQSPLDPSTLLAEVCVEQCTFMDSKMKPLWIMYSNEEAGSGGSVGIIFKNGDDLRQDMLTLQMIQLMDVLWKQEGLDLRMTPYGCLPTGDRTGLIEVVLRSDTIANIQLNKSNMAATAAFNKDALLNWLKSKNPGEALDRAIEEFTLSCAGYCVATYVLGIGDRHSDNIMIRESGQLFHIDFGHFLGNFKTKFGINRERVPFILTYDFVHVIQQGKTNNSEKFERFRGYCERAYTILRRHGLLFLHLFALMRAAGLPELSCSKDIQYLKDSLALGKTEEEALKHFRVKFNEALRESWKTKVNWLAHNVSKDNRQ
# T6 sequence (P27986 whole entry partner): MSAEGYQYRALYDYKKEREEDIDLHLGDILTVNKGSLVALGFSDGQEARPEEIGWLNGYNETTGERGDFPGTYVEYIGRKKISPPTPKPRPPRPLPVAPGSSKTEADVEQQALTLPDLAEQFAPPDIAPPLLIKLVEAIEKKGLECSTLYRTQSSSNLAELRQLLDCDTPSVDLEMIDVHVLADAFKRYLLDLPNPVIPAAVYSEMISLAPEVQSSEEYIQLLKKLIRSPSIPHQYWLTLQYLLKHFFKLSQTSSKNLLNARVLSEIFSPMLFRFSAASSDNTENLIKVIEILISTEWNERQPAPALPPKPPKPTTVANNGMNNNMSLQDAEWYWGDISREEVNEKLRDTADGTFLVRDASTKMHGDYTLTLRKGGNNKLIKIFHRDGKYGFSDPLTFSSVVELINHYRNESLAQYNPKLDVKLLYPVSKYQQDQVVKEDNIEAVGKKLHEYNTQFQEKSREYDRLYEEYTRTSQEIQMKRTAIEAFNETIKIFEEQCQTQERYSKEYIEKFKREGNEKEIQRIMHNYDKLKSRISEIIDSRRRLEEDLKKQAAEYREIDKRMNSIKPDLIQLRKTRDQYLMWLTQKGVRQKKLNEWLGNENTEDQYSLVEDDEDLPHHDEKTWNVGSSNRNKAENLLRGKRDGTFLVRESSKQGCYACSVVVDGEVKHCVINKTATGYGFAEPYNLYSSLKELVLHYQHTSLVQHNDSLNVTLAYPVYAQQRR
# T8 sequence (P42336 whole entry H1047R): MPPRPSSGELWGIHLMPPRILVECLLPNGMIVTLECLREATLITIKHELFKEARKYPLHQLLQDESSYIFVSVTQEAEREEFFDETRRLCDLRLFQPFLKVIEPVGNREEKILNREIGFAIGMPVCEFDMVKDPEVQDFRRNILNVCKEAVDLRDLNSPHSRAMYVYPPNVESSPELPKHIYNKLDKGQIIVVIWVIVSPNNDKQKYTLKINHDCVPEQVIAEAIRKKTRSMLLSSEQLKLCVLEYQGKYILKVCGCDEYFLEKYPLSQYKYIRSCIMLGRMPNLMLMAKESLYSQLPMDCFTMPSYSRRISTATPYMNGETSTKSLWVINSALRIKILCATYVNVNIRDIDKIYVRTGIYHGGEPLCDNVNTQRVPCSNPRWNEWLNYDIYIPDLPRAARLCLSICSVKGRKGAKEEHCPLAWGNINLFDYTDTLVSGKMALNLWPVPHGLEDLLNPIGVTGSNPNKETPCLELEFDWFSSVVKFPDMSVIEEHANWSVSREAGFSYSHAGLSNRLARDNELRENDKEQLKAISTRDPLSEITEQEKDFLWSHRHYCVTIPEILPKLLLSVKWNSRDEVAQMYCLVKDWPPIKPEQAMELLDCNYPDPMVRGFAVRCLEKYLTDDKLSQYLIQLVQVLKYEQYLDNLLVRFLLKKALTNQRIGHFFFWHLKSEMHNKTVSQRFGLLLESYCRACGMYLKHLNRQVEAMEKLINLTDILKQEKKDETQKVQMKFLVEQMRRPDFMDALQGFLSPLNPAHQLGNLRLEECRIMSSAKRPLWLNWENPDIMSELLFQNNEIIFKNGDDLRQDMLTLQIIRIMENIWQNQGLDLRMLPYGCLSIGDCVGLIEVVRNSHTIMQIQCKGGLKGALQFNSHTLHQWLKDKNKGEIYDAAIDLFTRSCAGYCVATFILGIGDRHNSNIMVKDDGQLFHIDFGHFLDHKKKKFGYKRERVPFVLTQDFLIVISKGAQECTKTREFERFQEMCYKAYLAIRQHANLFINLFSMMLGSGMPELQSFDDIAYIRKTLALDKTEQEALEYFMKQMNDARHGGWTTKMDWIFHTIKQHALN
# T8 sequence (P27986 whole entry partner): as the sequence (P27986 whole entry partner) above
# T1 sequence (P42336 whole entry E545K): as the sequence (P42336 whole entry H1047R) above, with E545K, R1047H counted along it
# T1 sequence (P27986 whole entry partner): as the sequence (P27986 whole entry partner) above
# T3 sequence (P42336 whole entry E542K): as the sequence (P42336 whole entry H1047R) above, with E542K, R1047H counted along it
# T3 sequence (P27986 whole entry partner): as the sequence (P27986 whole entry partner) above
# T2 sequence (P42336 whole entry): as the sequence (P42336 whole entry H1047R) above, with R1047H counted along it
# T2 sequence (P27986 whole entry partner): as the sequence (P27986 whole entry partner) above
# T5 sequence (P42338 whole entry): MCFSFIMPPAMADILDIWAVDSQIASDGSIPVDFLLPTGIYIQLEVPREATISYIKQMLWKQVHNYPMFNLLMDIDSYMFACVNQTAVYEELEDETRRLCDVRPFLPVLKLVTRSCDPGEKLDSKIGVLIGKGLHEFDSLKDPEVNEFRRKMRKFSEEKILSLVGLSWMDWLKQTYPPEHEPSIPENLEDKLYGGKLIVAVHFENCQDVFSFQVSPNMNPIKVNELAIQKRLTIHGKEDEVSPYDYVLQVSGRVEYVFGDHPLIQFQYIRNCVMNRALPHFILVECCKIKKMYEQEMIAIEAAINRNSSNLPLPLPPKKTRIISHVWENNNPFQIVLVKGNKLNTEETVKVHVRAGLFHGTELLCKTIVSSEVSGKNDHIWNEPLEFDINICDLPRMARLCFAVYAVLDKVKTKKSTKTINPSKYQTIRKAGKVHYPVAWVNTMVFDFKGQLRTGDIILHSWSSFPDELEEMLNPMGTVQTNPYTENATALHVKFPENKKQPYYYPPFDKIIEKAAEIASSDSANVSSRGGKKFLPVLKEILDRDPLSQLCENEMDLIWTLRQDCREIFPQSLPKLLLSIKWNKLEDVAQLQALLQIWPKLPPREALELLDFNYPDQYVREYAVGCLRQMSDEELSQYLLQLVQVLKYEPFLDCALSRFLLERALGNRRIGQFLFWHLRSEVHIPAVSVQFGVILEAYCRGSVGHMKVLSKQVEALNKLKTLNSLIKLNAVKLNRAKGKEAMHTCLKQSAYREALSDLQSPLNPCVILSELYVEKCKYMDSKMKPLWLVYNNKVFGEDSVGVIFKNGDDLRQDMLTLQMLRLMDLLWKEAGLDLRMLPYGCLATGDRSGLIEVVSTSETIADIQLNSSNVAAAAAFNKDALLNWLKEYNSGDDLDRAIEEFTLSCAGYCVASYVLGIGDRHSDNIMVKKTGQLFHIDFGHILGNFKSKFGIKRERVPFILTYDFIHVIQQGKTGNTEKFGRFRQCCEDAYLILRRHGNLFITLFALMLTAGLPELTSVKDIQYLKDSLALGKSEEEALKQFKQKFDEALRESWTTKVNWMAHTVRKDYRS
# T5 sequence (P27986 whole entry partner): as the sequence (P27986 whole entry partner) above
smiles,measurement,setting,value
"CCCCCC(=O)Oc1cccc(-c2nc(N3CCOCC3)c3sccc3n2)c1 [Compound 1.006, 3-(4-Morpholinothieno[3,2-d]pyrimidin-2-yl)phenyl Hexanoate]",Saturation concentration in the gel formulation,[1],215 mg/mL
same,"Cumulative permeation, Compound 1.006",[2]; [15],0.0 μg/cm^2
same,Hydrolysis of Cmpd. 1.006 to MTPP,[2]; [15],100%
same,"Cumulative permeation, Compound 1.006",[2]; [16],0.0 μg/cm^2
same,Hydrolysis of Cmpd. 1.006 to MTPP,[2]; [16],100%
same,"Cumulative permeation, Compound 1.006",[2]; [17],1.0 μg/cm^2
same,Hydrolysis of Cmpd. 1.006 to MTPP,[2]; [17],96.7%
same,"Cumulative permeation, Compound 1.006",[2]; [18],13.0 μg/cm^2
same,Hydrolysis of Cmpd. 1.006 to MTPP,[2]; [18],79.5%
same,"Cumulative permeation, Compound 1.006",[2]; [19],30.5 μg/cm^2
same,Hydrolysis of Cmpd. 1.006 to MTPP,[2]; [19],82.0%
same,"Cumulative permeation, Compound 1.006",[2]; [20],0.0 μg/cm^2
same,Hydrolysis of Cmpd. 1.006 to MTPP,[2]; [20],100%
same,"Cumulative permeation, Compound 1.006",[2]; [21],0.5 μg/cm^2
same,Hydrolysis of Cmpd. 1.006 to MTPP,[2]; [21],93.3%
same,"Cumulative permeation, Compound 1.006",[2]; [22],0.5 μg/cm^2
same,Hydrolysis of Cmpd. 1.006 to MTPP,[2]; [22],97.8%
same,"Cumulative permeation, Compound 1.006",[2]; [23],0.6 μg/cm^2
same,Hydrolysis of Cmpd. 1.006 to MTPP,[2]; [23],98.9%
same,"Cumulative permeation, Compound 1.006",[2]; [24],0.6 μg/cm^2
same,Hydrolysis of Cmpd. 1.006 to MTPP,[2]; [24],99.4%
same,Metabolism to MTPP during permeation through human skin,[3],metabolize into MTPP
same,Relative Purity,[4]; Day 0,100%
same,Relative Purity,[4]; Day 5,94%
same,Relative Purity,[4]; Day 10,92%
"CCOC(=O)Oc1cccc(-c2nc(N3CCOCC3)c3sccc3n2)c1 [Compound 1.012, Ethyl (3-(4-morpholinothieno[3,2-d]pyrimidin-2-yl)phenyl) Carbonate]",Saturation concentration in the gel formulation,[1],58 mg/mL
same,"Cumulative permeation, Compound 1.012",[2]; 2 h,0.0 μg/cm^2
same,Hydrolysis of Cmpd. 1.012 to MTPP,[2]; 2 h,100%
same,"Cumulative permeation, Compound 1.012",[2]; 4 h,0.0 μg/cm^2
same,Hydrolysis of Cmpd. 1.012 to MTPP,[2]; 4 h,100%
same,"Cumulative permeation, Compound 1.012",[2]; 8 h,0.0 μg/cm^2
same,Hydrolysis of Cmpd. 1.012 to MTPP,[2]; 8 h,100%
same,"Cumulative permeation, Compound 1.012",[2]; 24 h,0.0 μg/cm^2
same,Hydrolysis of Cmpd. 1.012 to MTPP,[2]; 24 h,100%
same,"Cumulative permeation, Compound 1.012",[2]; 48 h,0.0 μg/cm^2
same,Hydrolysis of Cmpd. 1.012 to MTPP,[2]; 48 h,100%
same,Metabolism to MTPP during permeation through human skin,[3],completely metabolize into MTPP
same,Relative Purity,[4]; Day 0,100%
same,Relative Purity,[4]; Day 5,99%
same,Relative Purity,[4]; Day 10,96%
"Oc1cccc(-c2nc(N3CCOCC3)c3sccc3n2)c1 [MTPP, 3-(4-morpholinothieno(3,2-d)pyrimidin-2-yl)phenol, reference compound]",Cumulative permeation (intact compound),[2]; 2 h,0.23 μg/cm^2
same,Cumulative permeation (intact compound),[2]; 4 h,4.74 μg/cm^2
same,Cumulative permeation (intact compound),[2]; 8 h,15.85 μg/cm^2
same,Cumulative permeation (intact compound),[2]; 24 h,43.32 μg/cm^2
same,Cumulative permeation (intact compound),[2]; 48 h,70.13 μg/cm^2
same,Metabolism to MTPP during permeation through human skin,[3],permeated as its intact compound
same,Cancer cell growth inhibiting activity,[5],cancer cell growth inhibiting activity
same,PI3K inhibiting activity,[6],excellent PI3K inhibiting activity
same,IC50,[7],6.3 nM
same,IC50,[8],5.2 nM
same,IC50,[9],5.6 nM
same,IC50,[10],90 nM
same,IC50,[11],38 nM
same,IC50,[12],19 nM
same,IC50,[13],218 nM
same,IC50,[14],7.2 nM
